In patent publication US9278996B2, “Dolastatin-10 derivative, method of producing the same and anticancer drug composition containing the same” (CELLTRION, INC., priority 2012, dated 2016) one finds IC50 data, which are given here for nine compounds.

This assay has as its system breast cancer (BT-474). The assay can be described thus: Anticancer activity assay (WST-8 cell growth), BT-474. The class given is cell-based. To be noted: Homo sapiens, BT-474, 96 h, read-out: IC50 (nM) BT-474. Here is the method:
The compounds of the present invention were assayed for inhibitory activity against 7 cancer cell lines as breast cancer (BT-474), human epithelial cancer (A-431), non-small cell lung cancer (NCI-H460), colon cancer (HT-29), colon cancer (SW-620), breast cancer (MDA-MB-231) and breast cancer (MCF-7).
Briefly, a suspension of each cancer cell line was serially diluted, and plated at a density of 2˜3×10^3 cells/well into 96-well microplates, followed by incubation at 37° C. for 4 day in a 5% CO2 atmosphere. Cell growth in a monolayer was measured using WST-8 reagemt (Dojindo, Japan).
IC50 values of the compounds against the cancer cell lines were calculated as compound concentrations at which the cells were grown by 50% OD of the control.

SMILES strings stand for the structures.

In the case of `CC[C@H](C)[C@@H]([C@@H](CC(=O)N1C[C@H](OC)C[C@@H]1[C@H](OC)[C@@H](C)C(=O)N[C@H](C)C(=NO)c1ccc(F)cc1)OC)N(C)C(=O)[C@@H](NC(=O)[C@H](C(C)C)N(C)C)C(C)C` [Compound I-21, (S)-2-((S)-2-(dimethylamino)-3-methylbutaneamido)-N-((3R,4S,5S)-1-((2R,4R)-2-((1R,2R)-3-(((R)-1-(4-fluorophenyl)-1-(hydroxyimino)propan-2-yl)amino)-1-methoxy-2-methyl-3-oxopropyl)-4-methoxypyrrolidin-1-yl)-3-methoxy-5-methyl-1-oxoheptan-4-yl)-N,3-dimethylbutanamide], the IC50 was 0.59 nM.
For `CC[C@H](C)[C@@H]([C@@H](CC(=O)N1C[C@H](OC)C[C@@H]1[C@H](OC)[C@@H](C)C(=O)NCC(=NO)c1cc(Br)ccc1C)OC)N(C)C(=O)[C@@H](NC(=O)[C@H](C(C)C)N(C)C)C(C)C` [Compound I-22, (S)—N-((3R,4S,5S)-1-((2R,4R)-2-((1R,2R)-3-((2-(5-bromo-2-methylphenyl)-2-(hydroxyimino)ethyl)amino)-1-methoxy-2-methyl-3-oxopropyl)-4-methoxypyrrolidin-1-yl)-3-methoxy-5-methyl-1-oxoheptan-4-yl)-2-((S)-2-(dimethylamino)-3-methylbutaneamido)-N,3-dimethylbutanamide], the IC50 turned out to be 0.91 nM.
Consider `CC[C@H](C)[C@@H]([C@@H](CC(=O)N1C[C@H](OC)C[C@H]1[C@H](OC)[C@@H](C)C(=O)NC/C(=N/O)c1ccc(OC)cc1F)OC)N(C)C(=O)[C@@H](NC(=O)[C@@H](NC)C(C)C)C(C)C` [Compound I-25], for which the IC50 turned out to be 0.41 nM.
As for `CC[C@H](C)[C@@H]([C@@H](CC(=O)N1C[C@H](OC)CC1[C@H](OC)[C@@H](C)C(=O)NCC(=O)c1ccc(F)cc1C)OC)N(C)C(=O)[C@@H](NC(=O)[C@H](C(C)C)N(C)C)C(C)C` (stereo partly drawn) [Compound I-26], the IC50 worked out at 0.79 nM.
`CC[C@H](C)[C@@H]([C@@H](CC(=O)N1C[C@H](OC)CC1[C@H](OC)[C@@H](C)C(=O)NCC(=O)c1ccc(F)cc1C)OC)N(C)C(=O)[C@@H](NC(=O)[C@@H](NC)C(C)C)C(C)C` (stereo partly drawn) [Compound I-27]: the IC50 was determined as 0.5 nM.
In the case of `CC[C@H](C)[C@@H]([C@@H](CC(=O)N1C[C@H](OC)C[C@H]1[C@H](OC)[C@@H](C)C(=O)NCC(=O)c1ccccc1C)OC)N(C)C(=O)[C@@H](NC(=O)[C@@H](NC)C(C)C)C(C)C` [Compound I-28, (S)—N-((3R,4S,5S)-3-methoxy-1-((2S,4R)-4-methoxy-2-((1R,2R)-1-methoxy-2-methyl-3-oxo-3-((2-oxo-2-(o-tolyl)ethyl)amino)propyl)pyrrolidin-1-yl)-5-methyl-1-oxoheptan-4-yl)-N,3-dimethyl-2-((S)-3-methyl-2-(methylamino)butaneamido)butanamide] it was 0.65 nM.
In the case of `CC[C@H](C)[C@@H]([C@@H](CC(=O)N1C[C@H](OC)C[C@H]1[C@H](OC)[C@@H](C)C(=O)NCC(=O)c1ccc(C)cc1)OC)N(C)C(=O)[C@@H](NC(=O)[C@@H](NC)C(C)C)C(C)C` [Compound I-29, (S)—N-((3R,4S,5S)-3-methoxy-1-((2S,4R)-4-methoxy-2-((1R,2R)-1-methoxy-2-methyl-3-oxo-3-((2-oxo-2-(p-tolyl)ethyl)amino)propyl)pyrrolidin-1-yl)-5-methyl-1-oxoheptan-4-yl)-N,3-dimethyl-2-((S)-3-methyl-2-(methylamino)butaneamido)butanamide] it was 0.61 nM; in that of `CC[C@H](C)[C@@H]([C@@H](CC(=O)N1C[C@H](OC)C[C@H]1[C@H](OC)[C@@H](C)C(=O)NCC(=O)c1ccc(F)cc1)OC)N(C)C(=O)[C@@H](NC(=O)[C@@H](NC)C(C)C)C(C)C` [Compound I-30], 0.77 nM.
With `CC[C@H](C)[C@@H]([C@@H](CC(=O)N1C[C@H](OC)C[C@H]1[C@H](OC)[C@@H](C)C(=O)NCC(=O)c1ccc(OC)cc1F)OC)N(C)C(=O)[C@@H](NC(=O)[C@@H](NC)C(C)C)C(C)C` [Compound I-31], the IC50 amounted to 0.54 nM.
